Article PMC8767159, “Multiparameter Optimization of Trypanocidal Cruzain Inhibitors With In Vivo Activity and Favorable Pharmacokinetics” (Frontiers in Pharmacology, 2022)
Read-outs that look alike come from different tables or passages of the source.

Experiments:
[1] = In vivo pharmacokinetics in male CD1 mice; parameters: species or system mouse; conditions: for CLpu: plasma clearance corrected for the fraction unbound; for clearance / C0 / AUC / half-life / Vd / Cmax / Tmax / bioavailability: male, CD1, mouse, 0.5 mg/kg, mice; for clearance: plasma clearance, read-out: CLp (L/h/kg) IV (converted); for C0 / AUC / half-life / Vd / Cmax / Tmax / bioavailability: plasma; for Vd: read-out: VSS (L/kg) IV; for bioavailability: oral bioavailability
Method: The in vivo pharmacokinetic profiles of the compounds were determined using male CD1 mice weighing […] ([Davies and Morris, 1993]; [Liu and Jia, 2007]). The compounds were administered in a single dose orally (0.5 mg/kg) and intravenously (0.5 mg/kg). Stock solutions of the compounds in DMSO were diluted in Tween 80, PEG-400, and D5W (5% dextrose in water) at a ratio of 2:5:20:73 (v/v). The injection volume was 10 ml/kg. The remaining plasma concentration was monitored over time by LC-MS/MS by collecting blood samples (40 μl) at 10, 25, and 50 min and 1, 3, 6, 9, 12, and 24 h after administration of the compound.
For the biotransformation experiments and analysis of metabolites in microsomes, an Ultra-High-Pressure Liquid Chromatography instrument (UHPLC, Thermo Accela, Waltham, MA) ([Spaggiari et al., 2014]) connected to an automatic sample injector and a 1250 series pump was used. The UHPLC system was connected to a Thermo Fisher (Waltham, MA) LTQ Orbitrap mass spectrometer. For all other analyses, an AB Sciex Triple Quad 5500 coupled to a UHPLC equipped with a UV 1290 diode detector (Agilent Technologies, Santa Clara, CA) and a CTC PAL self-collecting system (LEAP Technologies, Carrboro, NC) was used. Q1 MS positive ion mode (300–500 Da) was used to detect the ions of the parent compounds. The UV detector was operated in spectral mode (250–280 nm). A Hypersil Gold C18 (2.1 mm × 100 mm, 1.9 µm, Thermo Fisher) HPLC column was used. The mobile phases were solvent A (0.1% formic acid in water) and solvent B (0.1% formic acid in ACN). The flow was adjusted to 0.55 ml/min, and the injection volume was adjusted to […]. The gradient started with 1% solvent B for 0.4 min, reached 40% (solvent B) in 2.3 min and 95% (solvent B) in 0.67 min, was maintained for 0.5 min, and returned to the initial condition of 1%. This condition was maintained for 1 min before injection of the next sample. The peak area ratio (peak area of the test compounds/peak area of the control compounds) was converted to the percentage of remaining compound, with the 0 min time point ratio set to 100%. T½ and CLint were calculated from the percentage of remaining compound versus the incubation time. From the resulting function, the slope (k) was determined. The equations T1/2 (min) = ln(2)/k and CLint in vitro (μL/min/mg) = k*1000/0.25 were used to determine T½ and CLint.

[2] = Acute toxicity and open-field test in female Swiss mice; assay type: in vivo
Method: Thirty-day-old female Swiss mice weighing 20–25 g and procured from the Center for the Development of Experimental Models for Medicine and Biology (CEDEME/UNIFESP) served as the subjects for these experiments. […] Rodent chow and water were available ad libitum throughout the experiments.
The compound, solubilized in 10% DMSO aqueous solution, was administered orally in a single dose of 150 and 300 mg/kg of body weight in female Swiss mice. Parameters related to behavior, autonomic functions, neurological activity, and mortality were assessed as toxicity signs. Soon after the administration of the compound, mice were placed in a circular open-field arena (40 cm diameter) with 50-cm-high walls to assess motor deficits. […] After this period, toxicity signs were assessed once a day for two consecutive weeks. The reference drug BZ at 150 mg/kg and vehicle (10% DMSO) were administered as controls.

T. cruzi (Y strain) = experiment: In vivo trypanocidal activity in mice infected with T. cruzi (Y strain); parameters: species or system Trypanosoma cruzi; conditions: for % reduction of peak parasitemia: vs vehicle
Method: Thirty-day-old female Swiss mice weighing 20–25 g and procured from the Center for the Development of Experimental Models for Medicine and Biology (CEDEME/UNIFESP) served as the subjects for these experiments. Animals were housed (5–6 per cage) in polypropylene cages and kept under controlled temperature (22–23°C) and humidity on a 12-h light/dark cycle (12 h light, 12 h dark; lights on at 6:30 am). Rodent chow and water were available ad libitum throughout the experiments. The Committee of Ethics in Research of the Universidade Federal de São Paulo approved all the experiments (CEUA n° 5301080816).
Treatment started on day five after infection with T. cruzi. The following parameters were evaluated in these experiments: level of parasitemia after the treatment, suppression of peak parasitemia (day seven after the infection), and reduction of parasitemia on the peak day (day seven after infection). Parasitemia was expressed as the number of T. cruzi trypomastigotes per 5 µl of blood and was calculated using the Brener method ([Brener, 1962]). […] On the seventh day of treatment, when parasitemia reached its peak, one-way ANOVA indicated a treatment effect (F3,16 = 7.47; p = 0.002). […] This dose-response effect is likely associated with the modulation of physiological systems that increase the susceptibility of the animals to infection with T. cruzi at high doses of the compound. […] The results of the in vivo studies indicate a moderate ability of 28 to suppress peak parasitemia at 150 mg/kg.

[3] = Table S6, IV, read-out: AUC (ng*h/mL) IV
[4] = Table S6, IV, read-out: T1/2(h) IV (converted)
[5] = Table S6, PO, read-out: AUC (ng*h/mL) PO
[6] = Table S6, PO, read-out: T1/2 (h) PO (converted)
[7] = single oral dose 150 and 300 mg/kg, 2 weeks of observation
[8] = 150 mg/kg, gavage, five daily doses from day 5 after infection, day 7, female Swiss mice
[9] = 300 mg/kg, gavage, five daily doses, day 7, female Swiss mice
[10] = Table 6, PO 0.5 mg/kg, male CD1 mice

| SMILES | CLpu ([1]; Table S6) | clearance ([1]; Table S6, IV) | C0 ([1]; Table S6, IV) | AUC [1, 3] | half-life [1, 4] | Vd ([1]; Table S6, IV) | Cmax ([1]; Table S6, PO) | Tmax ([1]; Table S6, PO) | AUC [1, 5] | half-life [1, 6] | bioavailability ([1]; Table S6) | % reduction of peak parasitemia (T. cruzi (Y strain); [8]) | also measured |
| --- | --- | --- | --- | --- | --- | --- | --- | --- | --- | --- | --- | --- | --- |
| NC(=O)Cn1c(CCNC(=O)COc2ccccc2)nc2ccccc21 [Compound 28] | 66.3 mL/min/kg | 0.73 L/h/kg | 1930 ng/mL | 1420 ng·h/mL | 0.52 h | 0.43 L/kg | 275 ng/mL | 30.6 min | 499 ng·h/mL | 0.82 h | 35% | 36.9% | Locomotor deficits (open-field test) ([2]; oral 150 and 300 mg/kg): did not cause locomotor deficits; Mortality [2, 7]: no mortality; Toxicity signs (behavior, autonomic functions, neurological activity) [2, 7]: No toxicity signs; reduction in parasitemia levels at lower doses (T. cruzi (Y strain); 75 mg/kg and 37.5 mg/kg, Supplementary Figure S10): no reduction; increase in the peak parasitemia compared with the vehicle (T. cruzi (Y strain); [9]): 13%; % reduction of peak parasitemia (T. cruzi (Y strain); [9]): -13% |
| O=C(Cn1ccnc1[N+](=O)[O-])NCc1ccccc1 [BZ, benznidazole, reference compound] | 16.7 mL/min/kg | 1 L/h/kg | 961 ng/mL | 1020 ng·h/mL | 0.8 h | 1.1 L/kg | 404 ng/mL | 24 min | 1040 ng·h/mL | 1.5 h | 90% | 100% | AUC (ng*h/ml) PO [1, 10]: 1.040 ng·h/mL; T1/2 (h) PO [1, 10]: 1.5 h; CLpu ([1]; Table 6, IV): 16.7 mL/min/kg |
